The values below are quoted from earlier work in paper PMC2839367 (The Science of the total environment, 2010).

In data set [1] the test system is S. cerevisiae BLYES estrogen sensitive strain. The note with it: ref Sanseverino et al (2005).
In data set [2] the target is human estrogen receptor. The settings on record: ref Folmar et al (2002).

Regarding nonylphenol, the EC50 in data set [1] was 17 µM; in data set [2], 290 µM.
